Data: patent US20040116493A1, “Anti-helicobacterial agents” (priority 2000, published 2004)
In brackets after ≈: the same amount, converted by molar mass. Several values for one entry are separate records, joined by “and”; a condition that tells them apart may be missing. Equal entries are not always repeated.

Key:
[1] = system: Pseudomonas aeruginosa ATCC 25619; experiment: Agar plate dilution method, MIC; format: cell-based; settings: ATCC25619; Pseudomonas aeruginosa ATCC 25619, MH agar, overnight
Experimental: (§1) Firstly, the thus-synthesized compound of the present invention (2) was studied for its activity in vitro. For antibacterial activity, an agar plate dilution method was employed. The agar plate dilution method is well known in the art.
(§2) Specifically, a test compound containing the compound of the present invention was dissolved into dimethylsulfoxide, and serially diluted by two fold each time with sterile distilled water to prepare an antibacterial activity sample for the test compound containing the compound of the present invention. A BHI (Brain Heart Infusion) agar with 7% horse blood was used as medium for investigation of the antibacterial activity against H. pylori and H. felis. 1 ml of the sample of the compound of the present invention was added to 9 ml of the medium, followed by mixing to prepare an agar plate for measuring the antibacterial activity. MH (Mueller Hinton) agar medium was used to investigate the antibacterial activities against Pseudomonas aeruginosa, Escherichia coli, Klebsiella pneumoniae, and Staphylococcus aureus; and 10% horse serum-added MH agar medium was used to investigate the antibacterial activities against Streptococcus pneumoniae and Enterococcus faecalis. In both cases, agar plates for measuring the antibacterial activities are prepared in a manner similar to that for H. pylori and H. felis. For H. pylori and H. felis out of the bacteria to be subjected to the tests, 1 ml of each frozen bacterium stock solution was inoculated to 9 ml of 7% bovine fetal serum-added BHI liquid medium, and cultured at 37° C. for 48 hours in a 10% CO2 incubator. Each culture bacterium solution was prepared with the same medium to 10^6 CFU/ml (colony formation unit/milliliter). 5 μl of the prepared bacterium solution was inoculated to the antibacterial activity measuring agar medium, and cultured at 37° C. for 4 days in a 10% CO2 incubator. MH liquid medium was used for Pseudomonas aeruginosa, Escherichia coli, Klebsiella pneumoniae, and Staphylococcus aureus; and 10% horse serum-added MH liquid medium was used for Streptococcus pneumoniae and Enterococcus faecalis. In both cases, 1 ml of each frozen bacterium stock solution was inoculated to 9 ml of the medium, and cultured at 37° C. overnight. Each culture bacterium solution was prepared with the same medium as that had been used in the incubation to 10^6 CFU/ml. 5 μl of the prepared bacterium solution was inoculated to the antibacterial activity measuring agar medium, and cultured at 37° C. overnight.
(§3) The antibacterial activity of the compound against a subject bacterium (MIC: Minimum Inhibitory Concentration) was a maximum dilution ratio at which the growth of inoculated bacteria was not observed by the unaided eye.
(§4) The results are represented by MIC (Minimum Inhibitory Concentration).

[2] = system: Escherichia coli NIHJ JC-2; experiment: Agar plate dilution method, MIC; format: cell-based; settings: NIHJJC2; Escherichia coli NIHJ JC-2, MH agar, overnight
Experimental: as §1, §2, §3, §4

[3] = system: Staphylococcus aureus FDA 209P; experiment: Agar plate dilution method, MIC; format: cell-based; settings: FDA209P, MH agar, overnight
Experimental: as §1, §2, §4

[4] = system: Helicobacter pylori ATCC 43504; experiment: Agar plate dilution method, MIC; format: cell-based; settings: ATCC43504, 96 h; Helicobacter pylori ATCC 43504, BHI agar with 7% horse blood, 4 days
Experimental: as §1, §2, §4

[5] = system: Klebsiella pneumoniae ATCC 27736; experiment: Agar plate dilution method, MIC; format: cell-based; settings: ATCC27736; Klebsiella pneumoniae ATCC 27736, MH agar, overnight
Experimental: as §1, §2, §3, §4

H. pylori ATCC 43504 = experiment: In vivo bacterial eradication test in infected mice; design: species or system mice of the ICR strain; settings: for Bacterial eradication number / bacterial eradication % / Number of each bacterium in stomach: oral, three days; for Bacterial eradication number / bacterial eradication %: 3 samples; for Number of each bacterium in stomach: individual mice, limit of detection log 1.3; for bacterial eradication effect: 40 mg/kg
Experimental: Next, the compound of the present invention was studied as to whether or not it had bacterial eradication activity in vivo. 5-week old mice of the ICR strain from CLEA Japan, Inc. were used. These mice were infected with H. pylori ATCC 43504 (day 0). After the mice had been confirmed to be infected with H. pylori, the dose indicated in Table 3 was administered into the mice twice a day (AM 9 and PM 5) from day 20 to day 22. At day 23 which was the day after the last day of the administration, the mice were dissected and the number of bacteria within their stomachs were counted. The bacteria count measurement was conducted in the following manner. Phosphate buffer was added to the collected stomachs to prepare homogenates. These homogenates were inoculated to 7% horse blood-added agar medium to which various drugs were added in order to suppress the growth of bacteria other than the genus Helicobacter, and cultured at 37° C. for 7 days in a 10% CO2 incubator. The bacterial eradication activity was judged by detecting the presence or absence of the growth of the bacteria.

Helicobacter pylori SS1 = experiment: Agar plate dilution method, MIC; format: cell-based; settings: 96 h; Helicobacter pylori SS1, BHI agar with 7% horse blood, 4 days
Experimental: as §1, §2, §3, §4

[6] = system: Helicobacter pylori ATCC 43629; experiment: Agar plate dilution method, MIC; format: cell-based; settings: ATCC43629, 96 h; Helicobacter pylori ATCC 43629, BHI agar with 7% horse blood, 4 days
Experimental: as §1, §2, §4

[7] = system: Helicobacter pylori SR-9043; experiment: Agar plate dilution method, MIC; format: cell-based; settings: SR9043, 96 h; Helicobacter pylori SR-9043, BHI agar with 7% horse blood, 4 days
Experimental: as §1, §2, §4

[8] = system: Enterococcus faecalis ATCC 19433; experiment: Agar plate dilution method, MIC; format: cell-based; settings: ATCC19433; Enterococcus faecalis ATCC 19433, 10% horse serum-added MH agar, overnight
Experimental: as §1, §2, §4

[9] = system: Helicobacter felis ATCC 49179; experiment: Agar plate dilution method, MIC; format: cell-based; settings: ATCC49179, 96 h; Helicobacter felis ATCC 49179, BHI agar with 7% horse blood, 4 days
Experimental: as §1, §2, §4

[10] = system: Streptococcus pneumoniae SR-1003; experiment: Agar plate dilution method, MIC; format: cell-based; settings: SR1003; Streptococcus pneumoniae SR-1003, 10% horse serum-added MH agar, overnight
Experimental: as §1, §2, §4

Row | SMILES | MIC [1] | MIC [2] | MIC [3] | MIC [4] | MIC [5] | Bacterial eradication number (H. pylori ATCC 43504; 20 mg/kg twice a day) | bacterial eradication % (H. pylori ATCC 43504; 20 mg/kg twice a day) | Number of each bacterium in stomach (H. pylori ATCC 43504; 20 mg/kg twice a day) | bacterial eradication effect (H. pylori ATCC 43504) | Bacterial eradication number (H. pylori ATCC 43504; 40 mg/kg twice a day) | bacterial eradication % (H. pylori ATCC 43504; 40 mg/kg twice a day) | Number of each bacterium in stomach (H. pylori ATCC 43504; 40 mg/kg twice a day) | MIC (Helicobacter pylori SS1) | MIC [6] | MIC [7] | MIC [8] | MIC [9] | MIC [10] | bacterial eradication effect (samples) (H. pylori ATCC 43504; 20 mg/kg)
1 | O=C1c2ccc3c4c(ccc(c24)C(=O)N1c1nccs1)C(=O)N(c1nccs1)C3=O [Compound 4] | > 25 µg/mL | > 25 µg/mL | > 25 µg/mL | 2.5 µg/mL (≈ 5.78 µM) | – | – | – | – | – | – | – | – | – | – | – | – | – | – | –
2 | CN(C)[C@@H]1C(O)=C(C(N)=O)C(=O)[C@@]2(O)C(O)=C3C(=O)c4c(O)cccc4[C@@](C)(O)[C@H]3C[C@@H]12 [Tetracycline, tetracycline] | > 25 µg/mL | 1.56 µg/mL (≈ 3.51 µM) | – | – | 3.13 µg/mL (≈ 7.04 µM) | – | – | – | – | – | – | – | – | – | – | – | – | – | –
3 | CC1(C)S[C@@H]2[C@H](NC(=O)[C@H](N)c3ccc(O)cc3)C(=O)N2[C@H]1C(=O)O [Amoxicillin, amoxicillin] | > 25 µg/mL | 6.25 µg/mL (≈ 17.1 µM) | 0.05 µg/mL (≈ 0.137 µM) | 0.025 µg/mL (≈ 0.0684 µM) | 0.2 µg/mL (≈ 0.547 µM) | 1 | 33% | 1.60 log CFU/stomach and < 1.3 log CFU/stomach | not observed | 2 | 67% | <1.3, <1.3, log CFU/stomach (2×) and 1.78 log CFU/stomach | 0.39 µg/mL (≈ 1.07 µM) | 0.1 µg/mL (≈ 0.274 µM) | 0.39 µg/mL (≈ 1.07 µM) | 0.39 µg/mL (≈ 1.07 µM) | 0.1 µg/mL (≈ 0.274 µM) | 0.05 µg/mL (≈ 0.137 µM) | –
4 | Cc1ncc([N+](=O)[O-])n1CCO [Metronidazole, metronidazole] | > 25 µg/mL | > 25 µg/mL | > 25 µg/mL | > 25 µg/mL | > 25 µg/mL | – | – | – | – | – | – | – | 0.78 µg/mL (≈ 4.56 µM) | 3.13 µg/mL (≈ 18.3 µM) | > 25 µg/mL | > 25 µg/mL | 0.78 µg/mL (≈ 4.56 µM) | > 25 µg/mL | –
5 | O=C1c2ccc3c4c(ccc(c24)C(=O)N1c1ccccn1)C(=O)N(c1ccccn1)C3=O [Compound 2, N,N′-bis-(2-pyridyl)naphthalene-1,4,5,8-tetracarboxylate diimide] | > 25 µg/mL | > 25 µg/mL | > 25 µg/mL | 0.2 µg/mL (≈ 0.476 µM) | > 25 µg/mL | 3 | 100% | <1.3, <1.3, log CFU/stomach (2×) and <1.3 log CFU/stomach | – | – | – | – | 0.1 µg/mL (≈ 0.238 µM) | 0.2 µg/mL (≈ 0.476 µM) | 0.39 µg/mL (≈ 0.928 µM) | > 25 µg/mL | 0.1 µg/mL (≈ 0.238 µM) | > 25 µg/mL | 3/3
6 | CC[C@H]1OC(=O)[C@H](C)[C@@H](O[C@H]2C[C@@](C)(OC)[C@@H](O)[C@H](C)O2)[C@H](C)[C@@H](O[C@@H]2O[C@H](C)C[C@H](N(C)C)[C@H]2O)[C@](C)(OC)C[C@@H](C)C(=O)[C@H](C)[C@@H](O)[C@]1(C)O [Clarithromycin, clarithromycin] | > 25 µg/mL | 12.5 µg/mL (≈ 16.7 µM) | 0.05 µg/mL (≈ 0.0668 µM) | 0.025 µg/mL (≈ 0.0334 µM) | > 25 µg/mL | 0 (0) | 0 (0) % | 2.79 log CFU/stomach and 2.89 log CFU/stomach and 3.37 log CFU/stomach | not observed | 0 (0) | 0 (0) % | 1.6, 1.6, log CFU/stomach (2×) and 2.38 log CFU/stomach | 0.025 µg/mL (≈ 0.0334 µM) | 0.1 µg/mL (≈ 0.134 µM) | > 25 µg/mL | > 25 µg/mL | < 0.025 µg/mL | 0.0125 µg/mL (≈ 0.0167 µM) | –
7 | CC(=O)OCCN1C(=O)c2ccc3c4c(ccc(c24)C1=O)C(=O)N(CCOC(C)=O)C3=O [Compound 6] | > 25 µg/mL | > 25 µg/mL | > 25 µg/mL | 0.31 µg/mL (≈ 0.707 µM) | – | – | – | – | – | – | – | – | – | – | – | – | – | – | –
8 | CN(C)CCN1C(=O)c2ccc3c4c(ccc(c24)C1=O)C(=O)N(CCN(C)C)C3=O [Compound 7] | > 25 µg/mL | > 25 µg/mL | > 25 µg/mL | 0.39 µg/mL (≈ 0.955 µM) | – | – | – | – | – | – | – | – | – | – | – | – | – | – | –
9 | CN1C(=O)c2ccc3c4c(ccc(c24)C1=O)C(=O)N(C)C3=O [Compound 3] | > 25 µg/mL | > 25 µg/mL | > 25 µg/mL | 6.25 µg/mL (≈ 21.2 µM) | – | – | – | – | – | – | – | – | – | – | – | – | – | – | –
10 | O=C1c2ccccc2C(=O)N1N1C(=O)c2ccc3c4c(ccc(c24)C1=O)C(=O)N(N1C(=O)c2ccccc2C1=O)C3=O [Compound 5] | > 25 µg/mL | > 25 µg/mL | > 25 µg/mL | 12.5 µg/mL (≈ 22.5 µM) | – | – | – | – | – | – | – | – | – | – | – | – | – | – | –
